Measurements reported in ChEMBL document CHEMBL1139761, “Synthesis and optimization of novel and selective muscarinic M(3) receptor antagonists” (Bioorg Med Chem Lett, 2007).

Tests used:
[1] = target: Muscarinic acetylcholine receptor M3 (Rattus norvegicus, UniProt P08483); test: Displacement of [3H]N-methylscopolamine from muscarinic M3 receptor in rat submandibular gland; assay type: tissue-based
[2] = target: T1, Muscarinic acetylcholine receptor M2 (Rattus norvegicus, UniProt P10980); test: Displacement of [3H]N-methylscopolamine from muscarinic M2 receptor in rat heart
T1 sequence (P10980 whole entry): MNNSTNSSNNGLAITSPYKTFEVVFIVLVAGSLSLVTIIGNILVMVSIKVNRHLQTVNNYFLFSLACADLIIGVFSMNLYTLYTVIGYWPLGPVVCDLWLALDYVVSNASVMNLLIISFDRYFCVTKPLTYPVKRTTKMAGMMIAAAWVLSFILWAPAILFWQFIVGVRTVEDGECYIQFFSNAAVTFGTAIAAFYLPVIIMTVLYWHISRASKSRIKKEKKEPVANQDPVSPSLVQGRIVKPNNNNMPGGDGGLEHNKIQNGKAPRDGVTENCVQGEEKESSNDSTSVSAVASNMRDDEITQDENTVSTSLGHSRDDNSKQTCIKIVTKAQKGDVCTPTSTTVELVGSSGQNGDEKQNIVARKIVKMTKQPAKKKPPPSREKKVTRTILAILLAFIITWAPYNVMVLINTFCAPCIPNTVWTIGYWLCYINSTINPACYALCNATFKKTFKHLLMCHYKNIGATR

Muscarinic acetylcholine receptor M3, sequence (P08483 whole entry): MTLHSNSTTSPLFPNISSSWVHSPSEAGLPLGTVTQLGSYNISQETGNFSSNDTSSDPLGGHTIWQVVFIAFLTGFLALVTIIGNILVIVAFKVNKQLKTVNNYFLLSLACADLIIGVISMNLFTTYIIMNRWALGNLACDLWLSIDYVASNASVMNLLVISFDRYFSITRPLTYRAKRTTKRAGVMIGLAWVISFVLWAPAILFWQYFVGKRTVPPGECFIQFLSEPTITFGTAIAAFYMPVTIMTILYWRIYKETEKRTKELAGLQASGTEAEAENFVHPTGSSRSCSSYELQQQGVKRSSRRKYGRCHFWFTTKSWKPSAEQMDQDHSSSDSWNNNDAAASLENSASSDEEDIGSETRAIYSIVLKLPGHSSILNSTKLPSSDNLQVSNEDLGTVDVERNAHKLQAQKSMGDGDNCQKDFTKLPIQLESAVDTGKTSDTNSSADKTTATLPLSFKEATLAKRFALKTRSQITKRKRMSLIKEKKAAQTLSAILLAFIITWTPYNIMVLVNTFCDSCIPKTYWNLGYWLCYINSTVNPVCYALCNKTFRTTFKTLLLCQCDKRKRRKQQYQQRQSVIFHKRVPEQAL

Cc1ccc(C(C)N2C[C@@H]3[C@H](C2)[C@H]3NC(=O)C(O)(c2ccccc2)C2CCCC2)cc1 (some centres undefined)
Ki [1]: 58.9 nM
Ki [2]: 1230 nM

O=C(N[C@H]1[C@@H]2CN(Cc3ccccc3)C[C@@H]21)C(O)(c1ccccc1)C1CCCC1 (some centres undefined)
Ki [1]: 96 nM
Ki [2]: 1420 nM

O=C(N[C@H]1[C@@H]2CN(Cc3ccc4ccccc4c3)C[C@@H]21)C(O)(c1ccccc1)C1CCCC1 (some centres undefined)
Ki [1]: 42 nM
Ki [2]: 778 nM

O=C(N[C@H]1[C@@H]2CN(CCc3ccc4c(c3)OCO4)C[C@@H]21)[C@](O)(c1ccccc1)C1CCCC1
Ki [1]: 12.3 nM
Ki [2]: 646 nM

CC(c1ccccc1)N1C[C@@H]2[C@H](C1)[C@H]2NC(=O)C(O)(c1ccccc1)C1CCCCC1 (some centres undefined)
Ki [1]: 5.9 nM
Ki [2]: 154 nM

CC(c1ccccc1)N1C[C@@H]2[C@H](C1)[C@H]2NC(=O)C(O)(c1ccccc1)C1CCCC1 (some centres undefined)
Ki [1]: 25.1 nM
Ki [2]: 630 nM

CC(C)=CCCN1C[C@@H]2[C@H](C1)[C@H]2NC(=O)[C@@](O)(c1ccccc1)C1CCCC1
Ki [1]: 71 nM
Ki [2]: 1140 nM

O=C(N[C@H]1[C@@H]2CN(Cc3ccccc3)C[C@@H]21)C(O)c1ccccc1 (some centres undefined)
Ki [1]: > 1000 nM
Ki [2]: > 1000 nM

CC(c1ccccc1)N1C[C@@H]2[C@H](C1)[C@H]2NC(=O)C(O)(c1ccccc1)C1CCCCCC1 (some centres undefined)
Ki [1]: 1.8 nM
Ki [2]: 39 nM

O=C(N[C@H]1[C@@H]2CN(CCc3ccc4c(c3)OCO4)C[C@@H]21)C(O)(c1ccccc1)C1CCCC1 (some centres undefined)
Ki [1]: 20 nM
Ki [2]: 277 nM

O=C(N[C@H]1[C@@H]2CN(Cc3ccccc3)C[C@@H]21)C(O)(c1ccccc1)C1CCCCCC1 (some centres undefined)
Ki [1]: 6.8 nM
Ki [2]: 349 nM

O=C(N[C@H]1[C@@H]2CN(CCc3ccccc3)C[C@@H]21)C(O)(c1ccccc1)C1CCCC1 (some centres undefined)
Ki [1]: 9.3 nM
Ki [2]: 335 nM

O=C(N[C@H]1[C@@H]2CN(CCCc3ccccc3)C[C@@H]21)C(O)(c1ccccc1)C1CCCC1 (some centres undefined)
Ki [1]: 776 nM
Ki [2]: 2630 nM

NC(=O)C(c1ccccc1)(c1ccccc1)[C@@H]1CCN(CCc2ccc3c(c2)CCO3)C1 [DARIFENACIN]
Ki [2]: 63 nM

COC(=O)c1ccc(CCN2C[C@@H]3[C@H](C2)[C@H]3NC(=O)C(O)(c2ccccc2)C2CCCC2)cc1 (some centres undefined)
Ki [1]: 43.6 nM
Ki [2]: 537 nM

O=C(N[C@H]1[C@@H]2CN(CCc3ccc(Cl)cc3)C[C@@H]21)C(O)(c1ccccc1)C1CCCC1 (some centres undefined)
Ki [1]: 31.3 nM
Ki [2]: 298 nM

O=C(N[C@H]1[C@@H]2CN(Cc3ccccc3)C[C@@H]21)C(O)(c1ccccc1)C1CCCCC1 (some centres undefined)
Ki [1]: 31.7 nM
Ki [2]: 943 nM

O=C(N[C@H]1[C@@H]2CN(Cc3cccs3)C[C@@H]21)C(O)(c1ccccc1)C1CCCC1 (some centres undefined)
Ki [1]: 524 nM
Ki [2]: 3980 nM

Cc1ccc(CCN2C[C@@H]3[C@H](C2)[C@H]3NC(=O)C(O)(c2ccccc2)C2CCCC2)cc1C (some centres undefined)
Ki [1]: 43.6 nM
Ki [2]: 812 nM

CC(C)=CCCN1C[C@@H]2[C@H](C1)[C@H]2NC(=O)C(O)(c1ccccc1)C1CCCC1 (some centres undefined)
Ki [1]: 33 nM
Ki [2]: 1370 nM
